Assay [1] has as its system Ramos B lymphoma cells. In words: Survival of Ramos cells transfected with pcDNA3.1-V5-NMT2 in the presence of TrisDBA (trypan blue exclusion). To be noted: TrisDBA 5 ug/ml, 24 hours. The class given is cell-based, human. Here is the method:
B cells were transfected using the Neon® transfection system (Life technologies) following manufacturer's instructions and optimized protocol for Ramos B cells transfection (pulse voltage 1,300V; pulse width 20 ms, 2 pulses and 7.7.10^6 cells/mL) adapted for 100 μL tips. Classically, two transfections were pulled to obtained enough living cells to perform a viability assay.
(§1) B and T cell viability was measured using the trypan blue exclusion method. Cells were grown in confluency conditions (2×10^6 cells/mL maximum) assuring the minimum basal apoptosis. After incubation with NMT inhibitors, about 20 000 cells (10 μL) were incubated with 10 μL of TC10™ Trypan Blue Dye (Biorad) for 15 min. Cell viability was quantified using the TC10™ automated cell counter (Biorad).
In this example, transfection of Ramos B lymphoma cells (which, as shown herein, expresses NMT1) with pcDNA3.1-V5-NMT2 increased survival to TrisDBA (5 ug/ml) 2.5 fold vs control cells transfected with empty plasmid vector. In FIG. 6, 20×10^6 Ramos B lymphoma cells were transfected with 32 μg of DNA (pcDNA3.1-V5-empty or pcDNA3.1-V5-NMT2) using the Neon Transfection System (Invitrogen) following the recommended protocol for Ramos cell line (1,350 Volt, 30 ms). […] After a PBS wash, cells were resuspended and grown in RPMI containing TrisDBA (5 ug/ml) for 24 hours then counted using the trypan blue exclusion method (Panel A). […]

In assay [2] the target is T1, NMT1 (Homo sapiens, UniProt P30419).
T1 construct: His (N); made in house
T1 sequence (P30419 1-496): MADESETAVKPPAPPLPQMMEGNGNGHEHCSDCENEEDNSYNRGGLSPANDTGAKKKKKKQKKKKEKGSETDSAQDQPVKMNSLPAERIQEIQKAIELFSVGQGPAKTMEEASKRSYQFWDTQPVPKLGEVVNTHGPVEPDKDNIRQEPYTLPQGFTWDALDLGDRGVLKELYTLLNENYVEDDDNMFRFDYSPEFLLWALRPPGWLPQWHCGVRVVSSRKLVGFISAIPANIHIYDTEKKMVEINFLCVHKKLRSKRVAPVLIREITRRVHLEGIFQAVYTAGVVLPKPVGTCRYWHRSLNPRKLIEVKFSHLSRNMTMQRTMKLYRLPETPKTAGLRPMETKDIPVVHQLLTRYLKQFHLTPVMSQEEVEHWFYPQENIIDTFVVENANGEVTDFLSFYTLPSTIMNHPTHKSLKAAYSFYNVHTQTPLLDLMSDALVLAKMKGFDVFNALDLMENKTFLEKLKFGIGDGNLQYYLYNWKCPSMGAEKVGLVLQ
In words: In vitro NMT activity (peptide myristoylation) assay with purified recombinant enzyme. The class given is biochemical. To be noted: purified recombinant NMT1, radiolabeled myristoyl peptide on phosphocellulose paper. From the text: (§2) N-myristoyltransferase activity assay protocol was adapted from Raju, R. V., and Sharma, R. K. (1999) Preparation and assay of myristoyl-CoA:protein N-myristoyltransferase. Methods Mol Biol 116, 193-211. [^3H] myristoyl-CoA was freshly synthesized for each experiment, as previously described by Towler, D., and Glaser, L. (1986) Protein fatty acid acylation: enzymatic synthesis of an N-myristoylglycyl peptide. Proc Nal Acad Sci USA 83, 2812-2816. Briefly, cells were resuspended in 0.25 M sucrose buffer (50 mM NaH2PO4, pH 7.4) and subjected to 2 rounds of sonication at level 6.0 on a Branson Sonicator. […] Discs were washed (washing buffer: 25 mM Tris buffer, pH 7.4) to remove the residual radioactivity ([^3H]-myristate and [^3H]-myristoyl-CoA) while [^3H]-myristoyl-peptide is retained on the phosphocellulose paper. Radioactivity was quantified by liquid scintillation counting and converted into pMol of myristoylated peptide (Raju, R. V., and Sharna, R. K. (1999) Preparation and assay of myristoyl-CoA:protein N-myristoyltransferase. Methods Mol Biol 116, 193-211
(§3) NMT activity was assayed using a peptide myristoylation assay with purified recombinant NMT1 and NMT2. NMT activity was calculated from the amount of radiolabeled myristoyl peptide produced and detected on phosphocellulose paper (adapted from King et al. 1991, Anal Biochem.).

The target in assay [3] is T2, NMT2 (Homo sapiens, UniProt O60551).
T2 construct: His (N); made in house
T2 sequence (O60551 1-498): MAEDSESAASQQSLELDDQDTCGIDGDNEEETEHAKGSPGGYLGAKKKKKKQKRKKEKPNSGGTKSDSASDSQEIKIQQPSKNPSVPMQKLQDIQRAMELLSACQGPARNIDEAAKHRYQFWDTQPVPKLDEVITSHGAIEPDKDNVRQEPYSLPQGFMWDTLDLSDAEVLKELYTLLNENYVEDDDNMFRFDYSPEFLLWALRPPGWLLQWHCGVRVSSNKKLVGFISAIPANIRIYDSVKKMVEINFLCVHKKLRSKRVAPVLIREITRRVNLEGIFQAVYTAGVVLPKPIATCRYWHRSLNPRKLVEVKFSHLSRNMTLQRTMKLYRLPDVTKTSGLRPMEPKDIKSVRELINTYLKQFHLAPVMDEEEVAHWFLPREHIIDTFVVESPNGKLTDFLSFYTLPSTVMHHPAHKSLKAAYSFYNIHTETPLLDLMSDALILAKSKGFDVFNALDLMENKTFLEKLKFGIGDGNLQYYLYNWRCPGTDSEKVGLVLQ
Described as above. Format: biochemical. To be noted: purified recombinant NMT2, radiolabeled myristoyl peptide on phosphocellulose paper.
Source text: as §2, §3

The subject of assay [4] is B cell lymphomas and T cell leukemias. In words: Cell viability assay (trypan blue exclusion) after incubation with NMT inhibitors. The class given is cell-based, human. To be noted: 24 h, increasing concentration, control adjusted to 100%. The protocol: Tris dibutylbenzinylidene acetone paladium (TrisDBA) was a kind gift of Dr. Arbiser. Cells were incubated at increasing concentrations for 24 hours with TrisDBA (or DMSO for control) or for 24 and 48 hours with DDD85646.
as §1
FIG. 2 depicts the sensitivity of various B cell lymphomas and T cell leukemias to the NMT inhibitors tris-dibenzylideneacetone-dipalladium (Tris-DBA). Various B and T cells were incubated for 24 h with increasing concentration of Tris DBA. Cell viability was measured using trypan blue exclusion method and adjusted to 100% for control.

In the case of “tris-dibenzylideneacetone-dipalladium [Tris-DBA]”, the “Increased survival of NMT2-transfected cells vs control cells transfected with empty plasmid vector” value in assay [1] is 2.5 fold. Moreover, the “Inhibition of NMT activity” value in assay [2] and in assay [3] was “inhibits NMT in vitro” each time. Besides, the “Cell survival curves (sensitivity of B cell lymphomas versus other cells)” value in assay [4] is “more sensitive”.

The values above are taken from patent US20220023294A1, “SYNTHETIC LETHALITY AND THE TREATMENT OF CANCER” (PACYLEX PHARMACEUTICALS INC., priority 2011, published 2022).
